According to patent publication US20250127180A1, “PARTICLES COMPRISING DOUBLE STRANDED RNA AND USE OF SAME IN AGRICULTURE” (priority 2022, published 2025):

Tested on: B. cinerea
Assay: In-vitro fungal growth, O.D at 600 nm
Assay type: cell-based, Botrytis cinerea
Experimental: To test the effect of commonly used fungicide on B. cinerea growth, ‘Procloraz’ (Sportak, Bayer Cropscience LLC, Monheim am Rhein, Germany) or ‘fludioxonil’ (scholar, Hod-Hasharon, Israel) fungicide were diluted in 1% SMB to final concentrations of 1-1000 ppb or 0.01-1,000 ppb, respectively.
The plates were incubated at room temperature and O.D measurement at 600 nm was taken every hour for 48-72 hours using Synergy LX plate reader (BioTek, Winooski, Vermont, United States). The absorbance of three wells of repeats was averaged together and was background-corrected by subtracting the average absorbance of media alone at time zero (Galsurker et al., 2020; Langvad, 1999). Growth inhibition percentage was calculated (O.D in control well−O.D in treatment well)/O.D in control well×100) (Meletiadis et al., 2003). Coefficient treatment interaction (CTI) was calculated as follows: CTI=AB/(A×B). AB is the ratio of the treatment combination to control; A, or B is the ratio of the single treatment to control. Coefficient treatment interaction is considered as synergistic when CTI<1 (Chen et al., 2014).

N#Cc1c[nH]cc1-c1cccc2c1OC(F)(F)O2 [Fludioxonil]
B. cinerea growth (0.01-1,000 ppb, data not shown): reduced B. cinerea growth in a non-linear manner

CCCN(CCOc1c(Cl)cc(Cl)cc1Cl)C(=O)n1ccnc1 [Prochloraz, prochloraz]
fungal growth (O.D) (1-1,000 ppb in growth media): dose-dependent reduction of fungal growth

CC(C)[C@@H](C)/C=C/[C@@H](C)[C@H]1CC[C@H]2C3=CC=C4C[C@@H](O)CC[C@]4(C)[C@H]3CC[C@]12C [ergosterol]
fungal growth (ergosterol added to control): did not alter fungal growth
